Assay results reported in publication PMC8511016, “Src acts as the target of matrine to inhibit the proliferation of cancer cells by regulating phosphorylation signaling pathways” (Cell Death & Disease, 2021).

Molecular target: T1, Src (Homo sapiens, UniProt P12931)
T1 construct: recombinant GST-Src (full-length) and GST-Kinase (270–536 aa); endogenous Src in cell lysates
Assay: matrine-bead pull-down of recombinant GST-Src/GST-Kinase competed by free matrine; CETSA and DARTS in lysates; IC50 from Src kinase activity kit in SKOV3 cells ([…] ATP)
Format: binding

T1 sequence (P12931 2-536): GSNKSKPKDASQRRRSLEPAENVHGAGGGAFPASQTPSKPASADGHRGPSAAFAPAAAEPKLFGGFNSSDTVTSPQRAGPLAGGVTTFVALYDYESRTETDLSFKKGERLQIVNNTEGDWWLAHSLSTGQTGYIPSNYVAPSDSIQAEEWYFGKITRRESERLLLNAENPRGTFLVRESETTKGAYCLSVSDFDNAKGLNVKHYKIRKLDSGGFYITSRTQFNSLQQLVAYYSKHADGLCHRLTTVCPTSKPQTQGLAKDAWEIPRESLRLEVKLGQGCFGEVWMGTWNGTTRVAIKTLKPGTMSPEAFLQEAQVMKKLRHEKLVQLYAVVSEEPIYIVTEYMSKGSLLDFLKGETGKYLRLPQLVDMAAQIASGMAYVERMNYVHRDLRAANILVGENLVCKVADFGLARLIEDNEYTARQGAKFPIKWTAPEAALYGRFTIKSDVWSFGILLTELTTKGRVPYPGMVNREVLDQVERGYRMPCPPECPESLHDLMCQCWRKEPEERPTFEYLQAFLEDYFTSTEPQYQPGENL

For `O=C1CCC[C@@H]2[C@H]3CCCN4CCC[C@@H](CN12)[C@@H]34` [MA, matrine], the IC50 was 7.37 mM.
